Structures can show the parent of a compound that is named as a salt.
System: von Bezold-Jarisch reflex evoked by 5-HT
Assay: Antagonism of the von Bezold-Jarisch reflex evoked by 5-HT in the anaesthetised rat
Type: in vivo
Settings: iv, male rats, urethane anaesthesia, 5-HT usually 6 μg/kg i.v., heart rate, read-out: ED50 (concentration required to reduce the 5-HT-evoked response to 50% of the control response)
Description: Antagonism of the von Bezold-Jarisch reflex
The compounds were evaluated for antagonism of the von Bezold-Jarisch reflex evoked by 5-HT in the anaesthetised rat according to the following method:
Male rats 250≥350 g, were anaesthetised with urethane (1.25 g/kg intraperitoneally) and blood pressure and heart rate recorded as described by Fozard J. R. et al., J. Cardiovasc. Pharmacol. 2, 229-245 (1980). A submaximal dose of 5-HT (usually 6 μg/kg) was given repeatedly by the intravenous route and changes in heart rate quantified. Compounds were given intravenously and the concentration required to reduce the 5-HT-evoked response to 50% of the control response (ED50) was then determined.

CC1(C)CN(C(=O)CCc2c[nH]cn2)c2ccccc21 [Example E1, monohydrochloride]
ED50: 4.2 µg/kg

— patent US4918079A, “Imidazole derivatives as 5-HT3 receptor antagonists” (Beecham Group p.l.c., priority 1987, dated 1990)
